Measured values taken from US5593969A, “Lipid-A analogs: monosaccharide and dissaccharide compounds for inhibiting binding of lipid A receptors to lipid A receptors” (IGEN Incorporated, priority 1993, dated 1997).

What was measured:
[1] = system: Pseudomonas aeruginosa; format: in vivo, Pseudomonas aeruginosa in ICR mice; settings: Lipid-A at 1 μg/mouse
[2] = Serum antibody titre on Lipid-A by ELISA after liposome immunization; format: in vivo, Balb/c mice; settings: Lipid-A liposomes with HEL[105-120], HEL primed
Protocol: i) A stock solution of lipids for the formation of liposomes was prepared by mixing 10 mM solutions of dimyristoyl phosphatidyl choline, dicetyl phosphate and cholesterol (all from Sigma Chemicals) in the ratio 1.0:0.11:0.75. This stock was aliquotted into 1.0 ml volumes and dried under argon and stored at -20° C. until used.
ii) 500 μg of immunogen 3D dissolved in CHCl3 was dried into a 50 ml round bottomed flask on a rotary evaporator. One aliquot of the lipid stock was dissolved in 1 ml of CHCl3 :MeOH (9:1) and added to the dried immunogen 3D. The dissolved lipids were thoroughly mixed then dried together on a rotary evaporator under argon until all solvent had been removed and then for an additional 15 mins. The flask was then placed in a high vacuum dessicator for 2 hrs. 1.0 ml of swelling solution, approximately 0.9% NaCl, was added to the dry lipid film with 0.5 g of glass beads and mixed vigorously by swirling and vortexing. Liposomes were allowed to swell at room temperature overnight. […]
Mice which were primed with HEL and immunized with Immunogen 3D("Imm-3D") and Lipid-A incorporated separately into liposomes along with the peptide HEL[105-120] […] Seven days after the final immunization, serum samples were taken and the titres of IgG and IgM anti-Lipid-A antibodies determined separately by ELISA. […]

[3] = system: tumor cells; assay: Antitumor activity (Meth A fibrosarcoma, melanoma or Pro b cells); format: in vivo; settings: 250, 100 or 10 μg/mouse or up to 10 μg/kg, intravenously or intratumorly

## Lipid-A
[1]
  protective activity against gram-negative bacteria: exhibits protective activity
[2]
  IgG antibody responses to the eliciting antigen: enhanced IgG antibody responses
[3]
  tumor growth: retarded or prevented
